According to EP1834952A1, “Compound for promoting the growth of neural cells” (NatureWise Biotech & Medicals Corporation, priority 2006, dated 2007):

Legend:
Assay type in all cases: cell-based, Wistar rat
cortical neurons [1] = experiment: Neurite length of cortical neurons cultivated at low density, by microscope (Example 4); conditions: 38 cells/mm^2, 5 days; for growth of neurons and neurites under microscope: in the control all neural cells are dead
Method: (§1) Cells obtained from the suspension prepared in Example 1 were cultivated at a density of 38 cells/ mm^2 in 6-well plates coated with 30 µg/ml poly-D-lysine (Sigma) at 37°C, 5% CO2 and 95% relative humidity. The growth media contained compounds A, B, D, and G respectively and the growth media added with 5 µl of DMSO were used as control. The differentiated cells are categorically called cortical neurons.
The experiments were repeated three times. After cultivating for 5 days, the cells were observed under microscope and the length of the neurites was measured.

NSCs = experiment: Continuous cultivation of NSCs for 30 days, morphology and later differentiation (Example 7)
Method: As in Example 1, the NSCs were cultivated continuously and the growth media were replaced every seven days. DMSO-added growth media were used as the negative control. After 30 days, 100 µl of the cell suspension was aspirated and diluted to 1 ml. 250 µl of the supernatant was aspirated and placed on the slides coated with 30 µg/ml poly-D-lysine (Sigma). The cell morphology was observed thereafter under a microscope.
Unlike the normal neural stem cells, the cells lose their propensity to aggregate and form spheres, and the cells become atrophic in the cultivating suspension. […] These cells were cultivated for another 3 days and the cells were stained with immunofluorescence the same as in Example 5.

cortical neurons [2] = experiment: Survival of cortical neurons, live cell count by MTT assay (Examples 2 and 3); conditions: 300 cells/mm^2; 5 days; versus DMSO control; FIG. 2
Method: as §1, with “cultivated” for “cultivated at a density of 38 cells/ mm^2”, “µg/ml of” for “µg/ml”, “(Sigma) at 300 cells/mm^2 and cultivated” for “(Sigma)”, “D, E, F, G,” for “D,”, “and H” for “and G”, “cells after cultivation were” for “cells are”
The experiments were repeated three times. After cultivating for 5 days, live cells were counted by a known cell-counting method (MTT assay) and the absorbance was read at 540 nm.
as §1, with “150 or 300 cells/mm^2” for “38 cells/ mm^2”, “A,” for “A, B,”
The experiments were repeated three times. After cultivating for 5 days, the live cells were counted by a known cell-counting method (MTT assay) and the absorbance was read at 540 nm.

neural stem cells = experiment: Differentiation of NSCs from neurospheres, MAP-2 immunofluorescent staining (Examples 5 and 6)
Method: In the beginning of cultivating NSCs, either compound A or EGF was added into the growth media. The cells were cultivated for 3 days and the cells would aggregate to form neurospheres. One hundred µl of the cell suspension was aspirated and diluted to 1 ml. 250 µl of the supernatant which contained neurospheres was aspirated and placed on the cover slides coated with 30 µg/ml poly-D-lysine (Sigma). After all the cells had been attached onto the slides, the media was removed and replaced with the cultivating media containing compound A (FIG. 5A), EGF (FIG. 5C), or none of the growth factors (FIG. 5B, compound A in the beginning; FIG 5D, EGF in the beginning). The cells were cultivated for another 3 days at the same condition as described above so that the cells would differentiate into cortical neurons.
The cells were stained with a known immunofluorescent staining method. To stain the neurons, a neurological marker of MAP-2 (microtubule-associated protein 2) antibody was used as the primary antibody and a fluorescent material-labeled mouse immunoglobulin that identified primary antibody was used as the second antibody. After the primary antibody that had been bound onto the neurons was identified and bound by the secondary antibody, the neurons emit fluorescent light under the excitation of a specific light source.
The procedures were similar to Example 5. However, in the beginning of cultivating the neural stem cells, both compound D and EGF were added into the media. After all the cells had been attached onto the slides, the media were removed and replaced with the cultivating media containing compound D (FIG. 6B), EGF (FIG. 6C), none of the growth factors (FIG. 6D), or both compound D and EGF (FIG. 6A). The cells were cultivated for another 3 days and the cell morphology was observed thereafter by using immunofluorescent staining technique.

| SMILES | length of neurites, L1 (cortical neurons [1]; 2.5 µM) | length of neurites, L2 (cortical neurons [1]; 2.5 µM) | neurites extending out of each soma (cortical neurons [1]; 2.5 µM) | growth of neurons and neurites under microscope (cortical neurons [1]; 2.5 µM) | cell morphology of NSCs after 30 days (NSCs; media replaced every seven days, almost no surviving cells in DMSO control, FIG. 7B) | differentiation of 30-day neurospheres (immunofluorescence) (NSCs; then another 3 days on slides, FIG. 7C) | absorbance at 540 nm (live cells, MTT assay) (cortical neurons [2]) | differentiation of NSCs (MAP-2 staining) (neural stem cells; supplemented in the beginning (3 days) and thereafter at seeding on slides (another 3 days), FIG. 5A/5C) | differentiation of NSCs (MAP-2 staining) (neural stem cells; supplemented in the beginning only, none thereafter, FIG. 5B/5D) | length of neurites, L1 (cortical neurons [1]; 5 µM) | neurites extending out of each soma (cortical neurons [1]; 5 µM) | growth of neurons and neurites under microscope (cortical neurons [1]; 5 µM) | differentiation of NSCs (MAP-2 staining) (neural stem cells; both compound D and EGF in the beginning, compound D thereafter, FIG. 6B) | length of neurites, L2 (cortical neurons [1]; 5 µM) |
| --- | --- | --- | --- | --- | --- | --- | --- | --- | --- | --- | --- | --- | --- | --- |
| C/C(=C\Cc1c([C@@H]2CC(=O)c3c(O)cc(O)cc3O2)ccc(O)c1O)CCCC(C)(C)O [compound A] | 236 µm | 161 µm | at least 3 | continuous growth of the neurons and the extension of the neurites can be observed | can maintain the characteristics of forming spherical clusters | differentiating normally into neurons with the continuous outgrowth of neurites | best results | the cells will differentiate into neurons | the cells will differentiate into neurons | – | – | – | – | – |
| C/C(=C\Cc1cc([C@@H]2CC(=O)c3c(O)cc(O)cc3O2)cc(O)c1O)CCCC(C)(C)O [compound B] | – | – | – | – | – | – | – | – | – | 235 µm | at least 3 | continuous growth of the neurons and the extension of the neurites can be observed | – | – |
| CC(C)=CCC/C(C)=C/Cc1c([C@@H]2CC(=O)c3c(O)cc(O)cc3O2)ccc(O)c1O [compound D] | – | – | – | – | – | – | best results | – | – | 211 µm | at least 3 | continuous growth of the neurons and the extension of the neurites can be observed | the cells will differentiate into neurons | – |
| CC(C)=CCC/C(C)=C/Cc1c(O)cc2c(c1O)C(=O)C[C@@H](c1ccc(O)c(O)c1CC=C(C)C)O2 [compound G] | – | – | – | – | – | – | best results | – | – | 316 µm | at least 3 | continuous growth of the neurons and the extension of the neurites can be observed | – | 216 µm |
